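Where inhibition never reached the appropriate level, the endpoint shown equals the highest concentration tested. Otherwise, values were interpolated linearly from a five-concentration, 48-hour dose response in 96-well plates. TGI is the concentration that stops growth completely.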
Legend:
Assay in all cases: growth of human tumour cells (NCI), 48 h
[1] = test system: 786-0 renal
[2] = test system: A549 NSCLC
[3] = test system: CAKI-1 renal
[4] = test system: COLO 205 colon
[5] = test system: HCC-2998 colon
[6] = test system: HL-60(TB) leukemia
[7] = test system: KM12 colon
[8] = test system: LOX IMVI melanoma
[9] = test system: NCI-H226 lung
[10] = test system: NCI-H23 lung
[11] = test system: NCI-H522 lung
[12] = test system: OVCAR-4 ovarian
[13] = test system: SK-MEL-5 melanoma
[14] = test system: SK-OV-3 ovarian
[15] = test system: SNB-19 CNS
[16] = test system: SR leukemia
[17] = test system: U251 CNS
[18] = test system: UO-31 renal
[19] = test system: K-562 leukemia

CC1(C)S[C@@H]2[C@H](NC(=O)/C=C/c3ccccc3)C(=O)N2[C@H]1C(=O)O
TGI [1]: > 100 µM
TGI [2]: > 100 µM
TGI [3]: > 100 µM
TGI [4]: > 100 µM
TGI [5]: > 100 µM
TGI [6]: > 100 µM
TGI [7]: > 100 µM
TGI [8]: > 100 µM
TGI [9]: > 100 µM
TGI [10]: > 100 µM
TGI [11]: > 100 µM
TGI [12]: > 100 µM
TGI [13]: > 100 µM
TGI [14]: > 100 µM
TGI [15]: > 100 µM
TGI [16]: > 100 µM
TGI [17]: > 100 µM
TGI [18]: > 100 µM

CO[C@@]12CC(=O)/C(=C(O)\C=C\c3ccccc3)C(=O)[C@]1(OC)Cc1ccccc1O2
TGI [1]: 70.2 µM
TGI [2]: 88.8 µM
TGI [4]: > 100 µM
TGI [5]: 47 µM
TGI [19]: > 100 µM
TGI [7]: 46.6 µM
TGI [8]: > 100 µM
TGI [9]: 50.2 µM
TGI [10]: 61.8 µM
TGI [11]: 83.8 µM
TGI [12]: > 100 µM
TGI [13]: > 100 µM
TGI [14]: > 100 µM
TGI [15]: > 100 µM
TGI [17]: 59.1 µM
TGI [18]: > 100 µM

NC(=O)C(=CN1CC(=O)NC1=S)C(N)=O
TGI [1]: > 100 µM
TGI [2]: > 100 µM
TGI [3]: > 100 µM
TGI [4]: > 100 µM
TGI [5]: > 100 µM
TGI [6]: > 100 µM
TGI [7]: > 100 µM
TGI [8]: > 100 µM
TGI [9]: > 100 µM
TGI [10]: > 100 µM
TGI [12]: > 100 µM
TGI [13]: > 100 µM
TGI [14]: > 100 µM
TGI [15]: > 100 µM
TGI [17]: > 100 µM
TGI [18]: > 100 µM

CCOC(=O)CCc1c(C)[nH]c2c(C)c3c([nH]c4ccc(Cl)cc43)c(C)c2c1=O
TGI [1]: 20.5 µM
TGI [2]: 23.5 µM
TGI [3]: 49.5 µM
TGI [4]: 89 µM
TGI [5]: 30.5 µM
TGI [6]: 22.3 µM
TGI [7]: 87 µM
TGI [8]: 23.3 µM
TGI [9]: 46.5 µM
TGI [10]: 61.7 µM
TGI [11]: 24.1 µM
TGI [12]: 41.4 µM
TGI [13]: > 100 µM
TGI [15]: > 100 µM
TGI [16]: > 100 µM
TGI [17]: 43.4 µM
TGI [18]: 40.6 µM

CCCCCCCCCC(=O)CC(=O)c1c(O)cc(O)cc1O
TGI [1]: > 75 µM
TGI [2]: > 75 µM
TGI [3]: > 75 µM
TGI [4]: > 75 µM
TGI [5]: 31.4 µM
TGI [6]: 42.8 µM
TGI [19]: 36.3 µM
TGI [7]: 42.8 µM
TGI [8]: 35.4 µM
TGI [9]: 36.2 µM
TGI [10]: 35.9 µM
TGI [11]: 47.3 µM
TGI [12]: 35.8 µM
TGI [13]: 28.6 µM
TGI [14]: > 75 µM
TGI [15]: 68.1 µM
TGI [17]: > 75 µM
TGI [18]: 31.7 µM

O=C(/C=C/c1ccc(Cl)c(Cl)c1)C1CCC(Cl)CC1 (centres undefined)
TGI [1]: 30.6 µM
TGI [2]: 46.8 µM
TGI [3]: 50.1 µM
TGI [4]: 50.3 µM
TGI [5]: 32.8 µM
TGI [7]: 46.1 µM
TGI [8]: 30.7 µM
TGI [9]: 94.8 µM
TGI [10]: 38.8 µM
TGI [11]: 32.9 µM
TGI [12]: 39.6 µM
TGI [13]: 33.4 µM
TGI [14]: 33 µM
TGI [15]: 39 µM
TGI [17]: 28.3 µM
TGI [18]: 33.9 µM

CCCOCN1COCN=C1NC#N
TGI [1]: 45.1 µM
TGI [2]: > 100 µM
TGI [3]: > 100 µM
TGI [4]: 32.6 µM
TGI [5]: > 100 µM
TGI [6]: > 100 µM
TGI [19]: > 100 µM
TGI [7]: > 100 µM
TGI [8]: 47.5 µM
TGI [9]: > 100 µM
TGI [10]: > 100 µM
TGI [11]: > 100 µM
TGI [12]: > 100 µM
TGI [13]: > 100 µM
TGI [14]: > 100 µM
TGI [15]: > 100 µM
TGI [17]: 43.8 µM
TGI [18]: > 100 µM

From PubChem BioAssay (NCI)
